By MIC is commonly meant the least concentration at which growth counts as inhibited. A higher MIC goes with a need for much substance.

This note sets out measurements from US5712253A, “Macrocyclic 13-membered ring derivatives of erythromycins A and B” (Abbott Laboratories, priority 1996, dated 1998).

Assay [1] has as its target T1, motilin receptors (Oryctolagus cuniculus, UniProt G1T803).
T1 construct: Motilin receptors were isolated from rabbit antral smooth muscle tissue; from tissue; host or cells: rabbit antral smooth muscle tissue
In words: Motilin receptor binding activity ([^125 I]-motilin displacement, rabbit antral smooth muscle). The source says: This ability of the compounds to bind strongly to motilin receptors and the effective absence of elicitation of contractile activity by estimated therapeutic concentration of these compounds in rabbit duodenal smooth muscle together constitute motilin antagonist activity of the compounds.

The test system of assay [2] is rabbit duodenal smooth muscle. As to the kind of experiment: In vitro prokinetic activity: contraction of smooth muscle strips isolated from rabbit small intestine (duodenum). Format: cell-based. Here is the method: The compounds of the present invention were tested in vitro for their ability to induce contraction of smooth muscle strips isolated from rabbit small intestine using the following procedure:
Rabbits were sacrificed and 15 cm of duodenum was rapidly removed and placed in ice-cold modified Ringers solution (120 mM sodium chloride, 25 mM sodium bicarbonate, 4.7 mM potassium chloride, 1.25 mM calcium chloride, 1.20 mM magnesium sulfate and 5.6 mM glucose). The longitudinal muscle layer was separated from the circular muscle by blunt dissection and cut into strips of 10×20 mm. Double-folded strips were vertically suspended between two hooks in 10 mL tissue baths with a mechanical preload of 1 g. The upper hook was connected to an […] force transducer, and its displacement was recorded on a Grass polygraph. The tissue baths contained modified Ringers solution at 37° C. and were continuously gassed with 95% oxygen/5% carbon dioxide in order to maintain the pH at 7.5.
After a stabilization period of at least 60 minutes, a contractility dose-response series was performed by adding increasing final concentrations of methacholine (10^-7 M, 10^-6 M and 10^-5 M) in volumes of 100 μL. The bath solutions were replaced at least three times between doses.
After the methacholine dose-response series was completed, a test compound dose response curve was initiated by the same procedure used for the methacholine dose-response series, with at least five concentrations of test compound within the range of 10^-10 M to 10^-4 M. The tissues were washed repeatedly between doses, and the studies were completed by recording the contractile response to 10^-5 M methacholine to ascertain integrity of the muscle preparation. Contractile responses were expressed as percent of maximal methacholine induced contraction. The concentration of test compound which produces half of the maximal contraction (ED50 value) and the negative logarithm of the ED50 value (pED50) were estimated from the dose-response curves. The pED50 values were compared to motilin, (pED50 : 8.10) a known gastrointestinal prokinetic agent.

Assay [3] has as its system Streptococcus aureus ATCC 7538P. In words: Antibacterial activity (agar dilution method), MIC. It is filed as cell-based. Conditions: unit assumed. Here is the method:
(§1) Compounds of the invention were next tested for antibacterial potency, such activity being regarded as an undesirable side effect of motilin […] therapy. Assays were conducted using methodology well-known in the art (the agar dilution method).

For assay [4], the system named is Streptococcus pyogenes EES61. In words: Antibacterial activity (agar dilution method), MIC. It is filed as cell-based. The settings on record: unit assumed. Here is the method: as §1
Assay [5] concerns Escherichia coli SS. As to the kind of experiment: Antibacterial activity (agar dilution method), MIC. Format: cell-based. The settings on record: unit assumed. As to the method:
as §1
For orientation: In agar dilution the substance is mixed into plates at graded concentrations.

The test system of assay [6] is Pseudomonas eruginosa K799/WT. As to the kind of experiment: Antibacterial activity (agar dilution method), MIC. It is filed as cell-based. The settings on record: unit assumed. As to the method: as §1
The test system of assay [7] is Streptococcus bovis ATCC 8043. In words: Antibacterial activity (agar dilution method), MIC. It is filed as cell-based. Conditions: unit assumed. As to the method: as §1
The test system of assay [8] is Streptococcus aureus A5177. In words: Antibacterial activity (agar dilution method), MIC. It is filed as cell-based. The settings on record: unit assumed. Here is the method:
as §1

Values after ≈ are worked out from the molar mass of the structure shown. Where two headings read alike, the source gives them in different places.

T1 sequence (G1T803 1-400): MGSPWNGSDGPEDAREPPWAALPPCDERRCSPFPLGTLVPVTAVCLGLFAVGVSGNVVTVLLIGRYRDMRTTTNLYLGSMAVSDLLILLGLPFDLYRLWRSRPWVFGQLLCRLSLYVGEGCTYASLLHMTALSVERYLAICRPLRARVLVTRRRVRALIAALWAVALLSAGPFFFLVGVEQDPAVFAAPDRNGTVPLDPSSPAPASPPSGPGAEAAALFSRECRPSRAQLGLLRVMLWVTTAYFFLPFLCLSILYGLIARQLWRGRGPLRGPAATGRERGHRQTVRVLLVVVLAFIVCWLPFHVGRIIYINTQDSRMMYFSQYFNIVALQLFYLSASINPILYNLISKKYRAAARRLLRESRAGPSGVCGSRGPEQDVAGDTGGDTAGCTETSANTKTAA

For `CC[C@H](C)[C@H](NC(=O)[C@@H]1CCCN1C(=O)[C@@H](NC(=O)[C@@H](N)Cc1ccccc1)C(C)C)C(=O)N[C@@H](Cc1ccccc1)C(=O)N[C@H](C(=O)N[C@@H](Cc1ccc(O)cc1)C(=O)NCC(=O)N[C@@H](CCC(=O)O)C(=O)N[C@@H](CC(C)C)C(=O)N[C@@H](CCC(N)=O)C(=O)N[C@@H](CCCNC(=N)N)C(=O)N[C@@H](CCSC)C(=O)N[C@@H](CCC(N)=O)C(=O)N[C@@H](CCC(=O)O)C(=O)N[C@@H](CCCCN)C(=O)N[C@@H](CCC(=O)O)C(=O)N[C@@H](CCCNC(=N)N)C(=O)N[C@@H](CC(N)=O)C(=O)N[C@@H](CCCCN)C(=O)NCC(=O)N[C@@H](CCC(N)=O)C(=O)O)[C@@H](C)O` [motilin, reference compound], the Kd in assay [1] was 0.794 nM. In assay [2] (rabbit duodenum strips, 37° C., percent of maximal methacholine induced contraction), the “pED50 (negative logarithm of the concentration producing half of the maximal contraction)” value is listed as 8.10.

Regarding `CC[C@H]1OC(=O)[C@H](C)[C@@H](O[C@H]2C[C@@](C)(OC)C[C@H](C)O2)[C@H](C)[C@@H](O[C@@H]2O[C@H](C)C[C@H](N(C)CC)[C@H]2O)[C@@]2(C)CC(C)=C(O2)C(C(C)F)[C@H]1C` (stereo partly shown) [Example 1, Compound of Formula (I); R=H; R^1 =methyl; R^2 =ethyl; R^3 =H; X=F], the minimum inhibitory concentration (MIC) in assay [3] is 50 µg/mL; in assay [4], 25 µg/mL; in assay [5] it was > 100 µg/mL; in assay [6] it was > 100 µg/mL; in assay [7], 25 µg/mL; in assay [8] it was 50 µg/mL. Besides, the “motilin receptor binding (in words)” value in assay [1] (rabbit antral smooth muscle, [^125 I]-motilin) is reported as “binds strongly to motilin receptors”. Further, the Kd in assay [1] (rabbit antral smooth muscle, [^125 I]-motilin, read-out: pKd, motilin binding (negative logarithm of the concentration displacing 50% of bound [^125 I]-motilin) (converted)) was 11.5 nM. Also, the EC50 in assay [2] (Oryctolagus cuniculus, rabbit duodenum strips, 37° C., percent of maximal methacholine induced contraction, read-out: pED50 (negative logarithm of the concentration producing half of the maximal contraction) (converted)) is > 100000 nM. Further, the “agonism for induction of contractile activity (in words)” value in assay [2] (rabbit duodenal smooth muscle) is on record as “very weak agonist”. The “potency relative to motilin, induction of contractile activity” value in assay [2] (rabbit duodenal smooth muscle, pED50 compared to motilin) is reported as “more than four orders of magnitude less potent than motilin”.

Consider `CC[C@H]1OC(=O)[C@H](C)[C@@H](O[C@H]2C[C@@](C)(OC)[C@@H](O)[C@H](C)O2)[C@H](C)[C@@H](O[C@@H]2O[C@H](C)C[C@H](N(C)C)[C@H]2O)[C@](C)(O)C[C@@H](C)C(=O)[C@H](C)[C@@H](O)[C@]1(C)O` [Erythromycin], for which the MIC was 0.2 µg/mL (≈ 0.273 µM) in assay [3]; 0.05 µg/mL (≈ 0.0681 µM) in assay [4]; 0.39 µg/mL (≈ 0.531 µM) in assay [5]; 0.78 µg/mL (≈ 1.06 µM) in assay [6]; 0.05 µg/mL (≈ 0.0681 µM) in assay [7]; 6.2 µg/mL (≈ 8.45 µM) in assay [8].
